One experiment relates to Colo320 cells. As to the kind of experiment: Annexin-V-FITC/PI apoptosis induction assay (flow cytometry). The following applies: for Cell death % Q1 / Early apoptosis % Q3 / Late apoptosis and necrosis % Q2: 3 h induction. Type of experiment: cell-based, human. As for the experimental part:
To gain further insights into the cytotoxic behavior of the compounds, apoptosis induction by lead compounds HL^1 and [Cu(L^2)Cl] was investigated by a flow cytometry analysis of multidrug-resistant Colo320 cells stained with Annexin-V-FITC and propidium iodide (PI).
Colo320 cells were treated at the indicated concentration of the drugs. The dual parametric dot plots that combine the Annexin-V (FL1) and PI (FL3) fluorescence show the viable cell population in the lower-left quadrant Annexin-V–/PI– (Q4), the early apoptotic cells in the lower-right quadrant Annexin-V+/PI– (Q3), and the late apoptotic and necrotic cells in the upper-right quadrant Annexin-V+/PI+ (Q2). […]
2.5.3. Mechanisms of cell death: assay for apoptosis induction
The assay was carried out for selected compounds using an Annexin V-FITC Apoptosis Detection
Kit (Cat. No. APOAF-50TST) from Sigma according to the manufacturer's instructions. The
concentration of the Colo320 cell suspension was adjusted to approximately 0.5 × 10^6 cells per
mL in RPMI medium and the cell suspension was distributed in 1 mL aliquots into a 24-well plate,
and then incubated overnight at 37 °C and 5% CO2. On the following day, the medium was
removed and replaced by 1 mL RPMI medium containing the compounds except the control
samples. Colo320 cells were incubated in the presence of the compounds at 4 and 8 μM (HL1), or
0.25 and 0.50 μM (Cu(HL2)Cl2) in the 24-well plate at 37 °C for 3 h, and 12H-
controls. After the incubation period the samples were washed with PBS and fresh RPMI medium
was added to the samples. The cells were incubated overnight at 37 °C and 5% CO2. The next day,
200 μL 0.25% Trypsin (Trypsin-Versen) was added to the samples until cells appeared detached
followed by the addition of 400 μL of RPMI medium supplemented with 10% bovine serum. The
cells were collected in Eppendorf tubes and centrifuged at 2000 g for 2 min. The harvested cells
were resuspended in fresh serum free RPMI medium culture medium. After this step, the apoptosis
assay was carried out according to the instructions of the manufacturer. The fluorescence was
analyzed immediately using a ParTec CyFlow flow cytometer (Partec GmbH, Münster, Germany). […]

Another experiment concerns SW480 cells. As to the kind of experiment: Cell cycle distribution by flow cytometry. Type of experiment: cell-based, human. The following applies: 24 h. From the text:
[…] TEXT PRINTED IN THE PICTURE: (A) no label printed: S: 27.7% | (B) no label printed: S: 33.8% | (C) no label printed: S: 44.0% | (D) no label printed: S: 46.5% DOUBTS OF THE COPYIST ABOUT THIS PICTURE: No substance labels are printed in the picture, only the panel letters A-D. / The phase label "S" is printed only in panel A. Applying it to the percentages in panels B, C and D is assumed from where the marker line sits.

Results on 1 compound are retold here after article PMC8335727 (Inorganic Chemistry, 2021).

Molecules are shown by their SMILES. Values joined by “and” are separate entries in the source; they are usually repeats but may differ in a detail not shown here. Equal entries are not always repeated.

For `Cc1cc(NC(=S)NN=Cc2ccccn2)cc(C)c1O` [HL^1, 2-Formylpyridine 4-(4-hydroxy-3,5-dimethylphenyl)thiosemicarbazone], in the experiment on Colo320 cells (4 µM), the “Cell death % Q1” value is listed as 2.79%; the “Early apoptosis % Q3” value is 6.19%; the “Late apoptosis and necrosis % Q2” value amounted to 12.4%. For the same compound, in the experiment on Colo320 cells (8 µM), the “Cell death % Q1” value worked out at 1.57%; the “Early apoptosis % Q3” value is listed as 7.65%; the “Late apoptosis and necrosis % Q2” value stood at 7.0%. Moreover, the viability at 4 µM with Colo320 cells (Homo sapiens, COLO 320, 4 μM, read-out: viable cell population Q4) is 78.6%. In the experiment with SW480 cells (1 µM), this compound came in with a G1 phase cells of 48.5%, a G2 phase cells of 19.4% and a S phase cells of 32.0%. Besides, in the experiment on SW480 cells (10 µM), the G0/G1 phase cells was 49.2% and 49.2 ± 1.6%; the G2/M phase cells was 12.3% and 12.3 ± 4.4%; the S phase cells is reported as 37.1 ± 4.7%.
